Assay results reported in patent publication US10844141B2, “Process for obtaining polysaccharides from jatoba (Hymenea courbaril l ) seeds, cosmetic composition comprising said polysaccharides and uses thereof” (NATURA COSMÉTICOS S.A., priority 2008, dated 2020).
Several values for one entry are separate records, joined by “and”; a condition that tells them apart may be missing. Equal values may be shown once.

How the values were obtained:
[1] = tested on: human skin fibroblasts in primary culture; assay: Cell proliferation by neutral red staining (cell viability); format: cell-based; settings: TGF positive control, 96 hours of incubation, control = 100
Method: (§1) Assays were carried out to assess the potential of the polysaccharides obtained in accordance with the present invention in promoting cell proliferation (the increase in the number of cells in relation to a control group not treated with the active ingredient) by analyzing cell viability through neutral red staining. Another object of the assays was to assess the procollagen potential of active ingredients (collagen in excess produced by the cells treated with the active ingredient in relation to the untreated control cells), by detecting the collagen in the culture supernatant through the sirius red stain.
a) Whether or not the presence of a specific active ingredient in the cell culture, for one or more periods, results in an increase in the number of cells in relation to the control group (cells not treated with the same active ingredient). The number of cells is estimated as a function of the cell viability rate, which is monitored by the incubation of fibroblasts with the vital stain neutral red at the end of the assay period (96 h). This stain is incorporated into living cells so that the cell viability rate is given by the intensity of the stain absorbed by the cells in a directly proportional ratio. The colorimetric reading is carried out in a spectrophotometer, at the wavelength of 540 nm.

[2] = tested on: human skin fibroblasts in primary culture; assay: Procollagen potential / collagen synthesis by sirius red stain in culture supernatant; format: cell-based; settings: TGF positive control, 96 hours; for Normalized Collagen (%) (increase in collagen synthesis): control = 0.00
Method: as §1
b) Whether or not the presence of the active ingredient induces the cells to produce more collagen per se. To this end, dermis-derived human fibroblasts are incubated with the […](TGF-β), known to induce collagen synthesis and secretion (positive control). Simultaneously, other fibroblasts under the same condition are incubated with the active ingredient being tested. The collagen is identified by the sirius red stain (picrosirius solution), which has affinity for procollagen and collagen molecules. The procollagen potential of each active ingredient is identified by the increase in optical density (absorbance 540 nm filter) measured after the dissolution of the pigments previously absorbed by the collagen present in the culture supernatants.

## tumor growth factor-β [TGF]
[1]
  Cell Proliferation: 136.00% and 148.1%
[2]; control 0.152
  Total Collagen ± standard deviation (optical density): 0.224 ± 0.009 Abs
[2]
  Normalized Collagen (%) (increase in collagen synthesis): 98.10%
[2]; listed as TGF-b
  Normalized Collagen (%) (increase in collagen synthesis): 98.1%
[2]; control = 100.00 (Table 2)
  Collagen (%) after normalization by the viability index: 109.4%
[2]; normalized by viability index, control = 100.00
  Normalized Collagen: 198.10%
